Source: patent publication US20240270809A1, “ORAL GLP RECEPTOR AGONISTS” (priority 2020, published 2024)
Positions of bridges follow the written chain, without caps; N, C: chain ends. Non-standard residues stand in square brackets, D forms with d. Residues, ends and D or L forms follow the SMILES beside them. *: point of attachment. Malonyl(2,2-Me2,histaminyl) = CC(C)(C(=O)NCCc1cnc[nH]1)C(=O)*; Ala(1H-tetrazol-5-yl) = N[C@@H](Cc1nnn[nH]1)C(=O)O; Nle = CCCC[C@H](N)C(=O)O; Aib = CC(C)(N)C(=O)O

Columns and labels:
[1] = biological target: T1, human GLP2 receptor (Homo sapiens, UniProt O95838); assay: cAMP accumulation assay, functional agonism of human GLP2 receptor; assay type: cell-based; conditions: HEK cells infected with human GLP2 receptor BacMam virus, HTRF cAMP; for Emax: HEK293, read-out: Human GLP-2R agonist cAMP Emax; for EC50: read-out: Human GLP-2R agonist cAMP pEC50 (converted)
T1 construct: expressed in transfected cells; host or cells: HEK cells, BacMam virus transduction
T1 sequence (O95838 1-553): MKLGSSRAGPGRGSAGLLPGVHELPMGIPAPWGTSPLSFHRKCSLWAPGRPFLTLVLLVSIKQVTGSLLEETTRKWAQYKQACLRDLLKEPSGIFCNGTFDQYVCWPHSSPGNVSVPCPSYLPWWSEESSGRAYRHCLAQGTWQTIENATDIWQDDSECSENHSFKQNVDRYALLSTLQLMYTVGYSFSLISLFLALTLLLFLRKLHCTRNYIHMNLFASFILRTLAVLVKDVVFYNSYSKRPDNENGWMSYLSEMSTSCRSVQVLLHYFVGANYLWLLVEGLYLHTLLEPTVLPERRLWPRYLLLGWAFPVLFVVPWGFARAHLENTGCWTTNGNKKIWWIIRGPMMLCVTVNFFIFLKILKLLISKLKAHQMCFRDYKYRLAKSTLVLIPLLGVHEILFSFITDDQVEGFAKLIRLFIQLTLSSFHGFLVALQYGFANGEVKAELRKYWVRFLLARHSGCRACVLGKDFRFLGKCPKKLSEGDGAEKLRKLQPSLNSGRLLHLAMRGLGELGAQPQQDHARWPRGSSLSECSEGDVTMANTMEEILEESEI
How it was run: (§1)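 HEK cells transduced for 24 hours with human GLP2 or GLP1 receptor BacMam virus were frozen, then stimulated with agonist in HBSS containing 0.5 mM IBMX. After 45 min at 37° C, cAMP was measured by HTRF after adding detection reagents in lysis buffer.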

[2] = biological target: T2, human GLP1 receptor (Homo sapiens, UniProt P43220); assay: cAMP accumulation assay, functional agonism of human GLP1 receptor; assay type: cell-based; conditions: HEK cells infected with human GLP1 receptor BacMam virus, HTRF cAMP; for Emax: HEK293, read-out: Human GLP-1R agonist cAMP Emax; for EC50: read-out: Human GLP-1R agonist cAMP pEC50 (converted)
T2 construct: expressed in transfected cells; host or cells: HEK cells, BacMam virus transduction
T2 sequence (P43220 24-463): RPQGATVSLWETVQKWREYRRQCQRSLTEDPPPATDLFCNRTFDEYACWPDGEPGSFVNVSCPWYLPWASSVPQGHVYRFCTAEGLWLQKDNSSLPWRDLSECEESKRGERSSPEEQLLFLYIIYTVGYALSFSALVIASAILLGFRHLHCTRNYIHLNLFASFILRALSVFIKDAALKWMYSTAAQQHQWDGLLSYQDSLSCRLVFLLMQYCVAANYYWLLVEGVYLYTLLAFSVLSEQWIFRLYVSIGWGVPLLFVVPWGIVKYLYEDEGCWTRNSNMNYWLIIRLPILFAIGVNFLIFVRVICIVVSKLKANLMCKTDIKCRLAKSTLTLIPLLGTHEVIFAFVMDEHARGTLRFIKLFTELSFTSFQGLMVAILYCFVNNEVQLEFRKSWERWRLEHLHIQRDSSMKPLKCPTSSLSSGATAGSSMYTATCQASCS
How it was run: as §1

[3] = Stability of peptides in Fasted-State Simulated Intestinal Fluid (FaSSIF); assay type: in vitro ADME; conditions: FaSSIF with 10 mg/ml pancreatin; FaSSIF pH 6.5 with 10 mg/ml pancreatin, 37° C., t = 15 mins

| SMILES | Emax [1] | EC50 [1] | Emax [2] | EC50 [2] | remaining at 0.25 h [3] |
| --- | --- | --- | --- | --- | --- |
| CCCC[C@H](NC(=O)[C@H](CCC(=O)O)NC(=O)[C@H](CC(=O)O)NC(=O)[C@H](CO)NC(=O)[C@H](Cc1ccccc1)NC(=O)[C@H](CO)NC(=O)CNC(=O)[C@H](Cc1nn[nH]n1)NC(=O)C(C)(C)C(=O)NCCc1c[nH]cn1)C(=O)N[C@H](Cc1ccccc1)C(=O)N[C@H]1CCCCNC(=O)C[C@@H](C(=O)N[C@@H](CCCCN)C(=O)N[C@@H](C)C(=O)N[C@@H](C)C(=O)N[C@@H](CCCCN)C(=O)N[C@@H](CC(=O)O)C(=O)N[C@@H](Cc2ccccc2)C(=O)N[C@H](C(=O)N[C@@H](CC(N)=O)C(=O)N[C@@H](Cc2c[nH]c3ccccc23)C(=O)N[C@@H](CC(C)C)C(=O)N[C@H](C(=O)N[C@@H](CCC(N)=O)C(=O)N[C@H](C(=O)N[C@@H](CCCCN)C(=O)N[C@H](C(=O)N[C@H](C(=O)N[C@@H](Cc2ccccc2)C(N)=O)[C@@H](C)O)[C@@H](C)CC)[C@@H](C)O)[C@@H](C)CC)[C@@H](C)CC)NC(=O)[C@H](CC(=O)O)NC(=O)[C@H](CC(C)C)NC(=O)[C@H]([C@@H](C)CC)NC1=O [Example 91] ({Malonyl(2,2-Me2,histaminyl)}-[Ala(1H-tetrazol-5-yl)]GSFSDE[Nle][dF]KILDDKAAKDFINWLIQTKITF-NH2; lactam 10-14) | 104% | 0.01 nM | 98.8% | 0.251 nM | 8.8% |
| CCCC[C@H](NC(=O)[C@H](CCC(=O)O)NC(=O)[C@H](CC(=O)O)NC(=O)[C@H](CO)NC(=O)[C@H](Cc1ccccc1)NC(=O)[C@H](CO)NC(=O)CNC(=O)[C@H](Cc1nn[nH]n1)NC(=O)C(C)(C)C(=O)NCCc1c[nH]cn1)C(=O)N[C@H](Cc1ccccc1)C(=O)N[C@H]1CCCCNC(=O)C[C@@H](C(=O)N[C@@H](CCCCN)C(=O)N[C@@H](C)C(=O)N[C@@H](C)C(=O)N[C@@H](CCCCN)C(=O)N[C@@H](CC(=O)O)C(=O)N[C@@H](Cc2ccccc2)C(=O)N[C@H](C(=O)N[C@@H](CC(N)=O)C(=O)N[C@@H](Cc2c[nH]c3ccccc23)C(=O)N[C@@H](CC(C)C)C(=O)N[C@H](C(=O)N[C@@H](CCC(N)=O)C(=O)N[C@H](C(=O)N[C@H]2CCC(=O)NCCCC[C@@H](C(N)=O)NC(=O)[C@H]([C@@H](C)O)NC(=O)[C@H]([C@@H](C)CC)NC2=O)[C@@H](C)O)[C@@H](C)CC)[C@@H](C)CC)NC(=O)[C@H](CC(=O)O)NC(=O)[C@H](CC(C)C)NC(=O)[C@H]([C@@H](C)CC)NC1=O [Example 105] ({Malonyl(2,2-Me2,histaminyl)}-[Ala(1H-tetrazol-5-yl)]GSFSDE[Nle][dF]KILDDKAAKDFINWLIQTEITK-NH2; lactam 10-14, 28-31 (inferred); C-terminus assumed) | 101% | 0.0251 nM | 97.4% | 0.0251 nM | 1.6% |
| CCCC[C@H](NC(=O)[C@H](CCC(=O)O)NC(=O)[C@H](CC(=O)O)NC(=O)[C@H](CO)NC(=O)[C@H](Cc1ccccc1)NC(=O)[C@H](CO)NC(=O)CNC(=O)[C@H](Cc1nn[nH]n1)NC(=O)C(C)(C)C(=O)NCCc1c[nH]cn1)C(=O)N[C@H](Cc1ccccc1)C(=O)N[C@H](C(=O)N[C@H](C(=O)N[C@@H](CC(C)C)C(=O)N[C@@H](CC(=O)O)C(=O)N[C@H]1CC(=O)NCCCC[C@@H](C(=O)N[C@@H](CC(=O)O)C(=O)N[C@@H](Cc2ccccc2)C(=O)N[C@H](C(=O)N[C@@H](CC(N)=O)C(=O)N[C@@H](Cc2c[nH]c3ccccc23)C(=O)N[C@@H](CC(C)C)C(=O)N[C@H](C(=O)N[C@@H](CCC(N)=O)C(=O)N[C@H](C(=O)N[C@H]2CCC(=O)NCCCC[C@@H](C(N)=O)NC(=O)[C@H]([C@@H](C)O)NC(=O)[C@H]([C@@H](C)CC)NC2=O)[C@@H](C)O)[C@@H](C)CC)[C@@H](C)CC)NC(=O)[C@H](C)NC(=O)[C@H](C)NC(=O)[C@H](CCCCN)NC1=O)[C@@H](C)CC)[C@@H](C)O [Example 106] ({Malonyl(2,2-Me2,histaminyl)}-[Ala(1H-tetrazol-5-yl)]GSFSDE[Nle][dF]TILDDKAAKDFINWLIQTEITK-NH2; lactam 14-18, 28-31; C-terminus assumed) | 102% | 0.501 nM | 97.2% | 0.316 nM | 9.6% |
| CCCC[C@H](NC(=O)[C@H](CCC(=O)O)NC(=O)[C@H](CC(=O)O)NC(=O)[C@H](CO)NC(=O)[C@H](Cc1ccccc1)NC(=O)[C@H](CO)NC(=O)CNC(=O)[C@H](Cc1nn[nH]n1)NC(=O)C(C)(C)C(=O)NCCc1c[nH]cn1)C(=O)N[C@H](Cc1ccccc1)C(=O)N[C@H](C(=O)N[C@H](C(=O)N[C@@H](CC(C)C)C(=O)N[C@@H](CC(=O)O)C(=O)N[C@H]1CCC(=O)NCCCC[C@@H](C(=O)N[C@@H](CC(=O)O)C(=O)N[C@@H](Cc2ccccc2)C(=O)N[C@H](C(=O)N[C@@H](CC(N)=O)C(=O)N[C@@H](Cc2c[nH]c3ccccc23)C(=O)N[C@@H](CC(C)C)C(=O)N[C@H](C(=O)N[C@@H](CCC(N)=O)C(=O)N[C@H](C(=O)N[C@H]2CCC(=O)NCCCC[C@@H](C(N)=O)NC(=O)[C@H]([C@@H](C)O)NC(=O)[C@H]([C@@H](C)CC)NC2=O)[C@@H](C)O)[C@@H](C)CC)[C@@H](C)CC)NC(=O)[C@H](C)NC(=O)[C@H](C)NC(=O)[C@H](CCCCN)NC1=O)[C@@H](C)CC)[C@@H](C)O [Example 107] ({Malonyl(2,2-Me2,histaminyl)}-[Ala(1H-tetrazol-5-yl)]GSFSDE[Nle][dF]TILDEKAAKDFINWLIQTEITK-NH2; lactam 14-18, 28-31) | 101% | 0.02 nM | 96.9% | 0.02 nM | 7.4% |

The remaining lines, values ahead:

| Emax [1] | EC50 [1] | Emax [2] | EC50 [2] | remaining at 0.25 h [3] | SMILES |
| --- | --- | --- | --- | --- | --- |
| 102% | 0.00794 nM | 97% | 0.0251 nM | 4.6% | CCCC[C@H](NC(=O)[C@H](CCC(=O)O)NC(=O)[C@H](CC(=O)O)NC(=O)[C@H](CO)NC(=O)[C@H](Cc1ccccc1)NC(=O)[C@H](CO)NC(=O)CNC(=O)[C@H](Cc1nn[nH]n1)NC(=O)C(C)(C)C(=O)NCCc1c[nH]cn1)C(=O)N[C@H](Cc1ccccc1)C(=O)N[C@H]1CCCCNC(=O)C[C@@H](C(=O)N[C@@H](CCCCN)C(=O)N[C@@H](C)C(=O)N[C@@H](C)C(=O)NC(C)(C)C(=O)N[C@@H](CC(=O)O)C(=O)N[C@@H](Cc2ccccc2)C(=O)N[C@H](C(=O)N[C@@H](CC(N)=O)C(=O)N[C@@H](Cc2c[nH]c3ccccc23)C(=O)N[C@@H](CC(C)C)C(=O)N[C@H](C(=O)N[C@@H](CCC(N)=O)C(=O)N[C@H](C(=O)N[C@H]2CCC(=O)NCCCC[C@@H](C(N)=O)NC(=O)[C@H]([C@@H](C)O)NC(=O)[C@H]([C@@H](C)CC)NC2=O)[C@@H](C)O)[C@@H](C)CC)[C@@H](C)CC)NC(=O)[C@H](CC(=O)O)NC(=O)[C@H](CC(C)C)NC(=O)[C@H]([C@@H](C)CC)NC1=O [Example 109] ({Malonyl(2,2-Me2,histaminyl)}-[Ala(1H-tetrazol-5-yl)]GSFSDE[Nle][dF]KILDDKAA[Aib]DFINWLIQTEITK-NH2; lactam 10-14, 28-31) |
| 103% | 0.0158 nM | 88.1% | 3.98 nM | 5% | CCCC[C@H](NC(=O)[C@H](CCC(=O)O)NC(=O)[C@@H]1CCCCNC(=O)CC[C@H](NC(=O)[C@H](CC(=O)O)NC(=O)C(C)(C)NC(=O)[C@@H](N)Cc2c[nH]cn2)C(=O)N[C@@H](CO)C(=O)N[C@@H](Cc2ccccc2)C(=O)N[C@@H](CO)C(=O)N1)C(=O)N[C@H](Cc1ccccc1)C(=O)N[C@H](C(=O)N[C@H](C(=O)N[C@@H](CC(C)C)C(=O)N[C@@H](CC(=O)O)C(=O)N[C@H]1CCCCNC(=O)C[C@@H](C(=O)N[C@@H](CC(=O)O)C(=O)N[C@@H](Cc2ccccc2)C(=O)N[C@H](C(=O)N[C@@H](CC(N)=O)C(=O)N[C@@H](Cc2c[nH]c3ccccc23)C(=O)N[C@@H](CC(C)C)C(=O)N[C@H](C(=O)N[C@@H](CCC(N)=O)C(=O)N[C@H](C(=O)N[C@@H](CCCCN)C(=O)N[C@H](C(=O)N[C@H](C(=O)N[C@@H](CC(=O)O)C(N)=O)[C@@H](C)O)[C@@H](C)CC)[C@@H](C)O)[C@@H](C)CC)[C@@H](C)CC)NC(=O)[C@H](C)NC(=O)[C@H](C)NC(=O)[C@H](CCCCN)NC1=O)[C@@H](C)CC)[C@@H](C)O [Example 110] (H-H[Aib]DESFSKE[Nle][dF]TILDKKAADDFINWLIQTKITD-NH2; lactam 4-8, 16-20; N-terminus and C-terminus assumed) |
